In PMC4624963, “Enzymatic Characterization of Recombinant Food Vacuole Plasmepsin 4 from the Rodent Malaria Parasite Plasmodium berghei” (PLoS ONE, 2015):
Where two headings read alike, the source gives them in different places. Where a SMILES comes first, the peptide text is derived from it. [ ]: non-standard residue; d: D form. The star is where a group is joined. Sta = CC(C)C[C@H](N)[C@@H](O)CC(=O)O; Isovaleryl = CC(C)CC(=O)*

Experiments:
PmPM4 = details: read-out: Dissociation Constant (K i) PmPM4; cited from earlier work
PoPM4 = details: read-out: Dissociation Constant (K i) PoPM4; cited from earlier work
PbPM4 [1] = biological target: T1, PbPM4 (Plasmodium berghei, UniProt O76965); assay: Kinetic analysis of cleavage of chromogenic peptide substrates by mature PbPM4; type: biochemical; details: sodium citrate pH 5.0, 37°C
T1 sequence (O76965 entry or part of it): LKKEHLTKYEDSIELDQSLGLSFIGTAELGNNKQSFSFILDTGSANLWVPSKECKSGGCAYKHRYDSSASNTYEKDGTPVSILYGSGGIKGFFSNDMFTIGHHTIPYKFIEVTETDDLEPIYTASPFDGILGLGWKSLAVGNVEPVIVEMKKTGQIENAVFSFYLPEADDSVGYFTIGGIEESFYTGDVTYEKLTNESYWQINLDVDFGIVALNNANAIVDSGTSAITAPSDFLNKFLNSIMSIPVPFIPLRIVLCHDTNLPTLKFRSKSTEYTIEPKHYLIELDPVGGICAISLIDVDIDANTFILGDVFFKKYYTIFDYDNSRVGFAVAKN
Protocol: (§1) Chromogenic peptide substrates were dissolved in a solution containing 20% dimethyl sulfoxide (DMSO), 10% formic acid, and 70% distilled deionized water to generate stock solutions. Inhibitor stock solutions were prepared in 100% DMSO. The concentrations of the stock solutions were determined by amino acid analysis.
(§2) Kinetic assays were set up in 500 mM sodium citrate, pH 5.0 at 37°C with a 5-min pre-equilibrium time with buffer. To study kinetics of the zymogen form, assays were set up in 500 mM sodium citrate, pH 5.5 at 37°C with a 5-min pre-equilibrium time. All enzymatic reactions were carried out at 37°C.
The substrate hydrolysis was analyzed by spectroscopy and defined as the decrease of the average absorbance between 284–324 nm. Pre-equilibrated enzyme was mixed with substrate at least six different concentrations (μM). The initial cleavage velocities (AU/sec) of these reactions were immediately measured on a Cary 50 Bio UV-Visible spectrophotometer. The initial cleavage rates (M/sec) were converted from the observed velocities (AU/sec) by dividing the observed velocities by the total absorbance changes upon complete enzymatic digestion of the substrate of known concentrations (i.e., AU/M).
The total concentration of active enzyme, [E]tot, was determined by titrating PbPM4 enzyme with the tight binding, competitive, aspartic proteinase inhibitor pepstatin A. A constant amount of pre-equilibrated enzyme was mixed either with 100 μM of the peptide substrate Lys-Pro-Ile-Leu-Phe*Nph-Arg-Leu or with both 100 μM of substrate and pepstatin A at a series of different concentrations. The initial cleavage rates of the substrate at different inhibitor concentrations were immediately measured afterwards using a Cary 50 Bio UV-Visible spectrophotometer.

PbPM4 [2] = biological target: T1, PbPM4; assay: Inhibition of mature PbPM4, dissociation constants (Ki) from initial cleavage velocities of a chromogenic peptide substrate; type: biochemical
Protocol: as §1, §2
(§3) Dissociation constants were determined as previously described.
(§4) The enzymes were prepared for kinetic assays: purified proPbPM4 was pre-incubated in 100 mM sodium citrate, pH 5.0, at 37°C for 5 min; purified mature PfPM1 was pre-incubated in 100 mM sodium citrate, pH 5.5, at 37°C for 3 min; all the other plasmepsins were pre-incubated in 100 mM sodium formate, pH 4.5, at 37°C for 5 min to convert zymogen to mature enzyme before the addition of substrates. Pre-incubation of hcatD was carried out in 200 mM sodium formate, pH 3.7, at 37°C for 5 min. Compound 1 was dissolved in 100% DMSO, and filtered through a 0.45 μm Costar cellulose acetate tube filter by centrifugation at 20,000 g, room temperature for 5 min to remove any particulate. The concentration of compound 1 was determined by amino acid analysis. Dissociation constants (Ki) were determined as described above.

[3] = biological target: T2, human cathepsin D (hcatD) (Homo sapiens, UniProt P07339); assay: Inhibition of human cathepsin D, dissociation constants (Ki); type: biochemical; details: pre-incubated in 200 mM sodium formate pH 3.7, 37°C, 5 min; read-out: Dissociation Constant (K i) hCatD
T2 construct: made in house
T2 sequence (P07339 65-412): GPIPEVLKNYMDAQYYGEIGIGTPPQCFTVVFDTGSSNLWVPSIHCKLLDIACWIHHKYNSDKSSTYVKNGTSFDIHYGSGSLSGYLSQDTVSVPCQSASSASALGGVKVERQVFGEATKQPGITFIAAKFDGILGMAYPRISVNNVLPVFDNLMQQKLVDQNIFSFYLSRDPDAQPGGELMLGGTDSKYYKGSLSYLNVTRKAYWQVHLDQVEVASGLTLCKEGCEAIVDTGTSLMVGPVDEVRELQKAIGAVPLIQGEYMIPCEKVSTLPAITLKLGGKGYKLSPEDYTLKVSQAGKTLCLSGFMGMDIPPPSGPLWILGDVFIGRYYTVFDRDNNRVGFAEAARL
Protocol: as §3
Proteins were purified using anion exchange chromatography.
Dissociation constants (Ki) were determined as described above.

PfPM1 = PfPM1 (Plasmodium falciparum, UniProt P39898); assay: biochemical
Chain of PfPM1 (P39898 124-452): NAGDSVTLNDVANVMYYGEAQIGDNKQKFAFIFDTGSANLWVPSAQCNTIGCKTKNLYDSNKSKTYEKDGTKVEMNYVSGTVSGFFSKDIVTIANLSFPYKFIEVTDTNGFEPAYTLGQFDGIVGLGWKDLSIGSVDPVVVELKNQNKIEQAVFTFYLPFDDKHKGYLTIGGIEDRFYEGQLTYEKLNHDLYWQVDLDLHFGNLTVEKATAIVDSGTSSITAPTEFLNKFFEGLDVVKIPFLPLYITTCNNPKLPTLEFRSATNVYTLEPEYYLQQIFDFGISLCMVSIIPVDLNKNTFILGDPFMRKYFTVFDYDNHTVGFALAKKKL
Protocol: as §3
(§5) Besides PbPM4, the cloning, expression and purification of recombinant human FV plasmepsins, including PfPM1, 2 and 4, PoPM4, PvPM4 and PmPM4, and hcatD were performed according to experimental procedures described in previous reports. Briefly, genes encoding N-terminally truncated semi-pro-enzymes were cloned from genomic DNA, or intra-erythrocyte stage cDNA library of Plasmodium spp. (e.g., in the case of PfPM1), and inserted to pET expression vectors (EMD Millipore). Protein expression, inclusion body preparation and in vitro protein refolding were performed as described above for PbPM4. Proteins were purified using anion exchange chromatography.
as §4, with “Compound 1 was dissolved in 100% DMSO, and filtered through a 0.45 μm Costar cellulose acetate tube filter by centrifugation at 20,000 g, room temperature for 5 min to remove any particulate.” left out

PvPM4 = PvPM4 (Plasmodium vivax, UniProt O60989); assay: biochemical
Chain of PvPM4 (O60989 122-450 limits assumed): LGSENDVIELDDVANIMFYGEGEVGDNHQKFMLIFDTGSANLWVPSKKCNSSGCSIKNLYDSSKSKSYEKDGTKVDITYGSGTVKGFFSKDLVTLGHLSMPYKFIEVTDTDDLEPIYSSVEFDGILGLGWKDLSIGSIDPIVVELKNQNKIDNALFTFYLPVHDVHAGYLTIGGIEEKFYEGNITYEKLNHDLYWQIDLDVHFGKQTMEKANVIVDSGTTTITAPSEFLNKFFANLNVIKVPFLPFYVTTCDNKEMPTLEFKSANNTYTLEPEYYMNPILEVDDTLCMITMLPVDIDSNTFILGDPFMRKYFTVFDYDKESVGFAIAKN
Protocol: as §3, §5
as §4, with “Compound 1 was dissolved in 100% DMSO, and filtered through a 0.45 μm Costar cellulose acetate tube filter by centrifugation at 20,000 g, room temperature for 5 min to remove any particulate.” left out

| Molecule | Ki (PmPM4) [nM] | Ki (PoPM4) [nM] | other results |
| --- | --- | --- | --- |
| CCCC[C@@H](CN[C@@H](CC(C)C)C(=O)N[C@@H](CCC(N)=O)C(=O)N[C@H](C(=O)O)[C@@H](C)CC)NC(=O)[C@H](CO)NC(=O)[C@H](CCCC)NC(=O)[C@@H]1CCCN1C(=O)[C@@H](N)CCCCN [Compound 3, KPnLSnLΨLQI] | 160 ± 26 | 187 ± 29 | – |
| CC(C)C[C@H](NC(=O)[C@@H]1CCCN1C(=O)[C@@H](N)CCCCN)C(=O)N[C@@H](CCC(=O)O)C(=O)N[C@H](CN[C@@H](Cc1ccc(O)cc1)C(=O)N[C@@H](CCCNC(=N)N)C(=O)N[C@H](C(=O)O)C(C)C)Cc1ccccc1 [Compound 6, KPLEFΨYRV] | 0.342 ± 0.047 | 3.2 ± 0.5 | – |
| Lys-Pro-Ile-Leu-Phe*Nph-Arg-Leu [K-P-I-L-F*Nph-R-L] | – | – | K m (PbPM4 [1]): 2.1 ± 0.2 µM; k cat (PbPM4 [1]): 34.9 ± 5.7 s⁻¹; k cat/K m (PbPM4 [1]): 1.65e+07 ± 2.9e+06 M⁻¹ s⁻¹ |
| CC(C)CC(=O)N[C@H](C(=O)N[C@H](C(=O)N[C@@H](CC(C)C)[C@@H](O)CC(=O)N[C@@H](C)C(=O)N[C@@H](CC(C)C)[C@@H](O)CC(=O)O)C(C)C)C(C)C [pepstatin A, reference compound] (Isovaleryl-VV[Sta]A[Sta]-OH) | – | – | Ki (PbPM4 [2]; mature PbPM4, sodium citrate pH 5.0, 37°C, 5 min pre-equilibrium, read-out: K i): 0.11 ± 0.02 nM |
| N=C(N)NCCC[C@H](NC[C@H](Cc1ccccc1)NC(=O)[C@H](CCC(=O)O)NC(=O)[C@H](Cc1ccc(O)cc1)NC(=O)[C@@H]1CCCN1C(=O)[C@@H](N)CCCCN)C(=O)N[C@@H](CCC(N)=O)C(=O)N[C@@H](Cc1ccccc1)C(=O)O [Compound 1, KPYEFΨRQF] | – | – | Ki [3]: 41000 nM; selectivity to PbPM4 and the four plasmepsin 4 homologs of human malaria parasites versus hcatD (PbPM4 [2]; from K i values): > 10 fold; Ki (PbPM4 [2]; proPbPM4 pre-incubated in 100 mM sodium citrate pH 5.0, 37°C, 5 min, read-out: Dissociation Constant (K i) PbPM4): 3900 nM; Ki (PfPM1): > 100000 nM; Ki (PvPM4): 426 ± 44 nM |
| CC(C)[C@H](NC(=O)[C@@H]1CCCN1C(=O)[C@@H](N)CCCCN)C(=O)N[C@@H](CCC(=O)O)C(=O)N[C@H](CN[C@@H](CCCNC(=N)N)C(=O)N[C@@H](CCC(N)=O)C(=O)N[C@H](C(=O)O)[C@@H](C)O)Cc1ccccc1 [Compound 4, KPVEFΨRQT] | 10.3 ± 1.3 | 39 ± 4.5 | – |
| CC(C)C[C@@H](CN[C@@H](C)C(=O)N[C@@H](Cc1c[nH]c2ccccc12)C(=O)N[C@H](C(=O)O)[C@@H](C)O)NC(=O)[C@H](CCC(=O)O)NC(=O)[C@H](Cc1ccccc1)NC(=O)[C@@H]1CCCN1C(=O)[C@@H](N)CCCCN [Compound 7, KPFELΨAWT] | 9000 | > 20000 | – |
| CC(C)C[C@@H](CN[C@@H](CC(C)C)C(=O)N[C@@H](CCC(N)=O)C(=O)N[C@@H](Cc1ccccc1)C(=O)O)NC(=O)[C@H](CO)NC(=O)[C@H](Cc1ccccc1)NC(=O)[C@@H]1CCCN1C(=O)[C@@H](N)CCCCN [Compound 2, KPFSLΨLQF] | – | 767 ± 81 | – |
| CC(C)C[C@H](NC(=O)[C@@H]1CCCN1C(=O)[C@@H](N)CCCCN)C(=O)N[C@@H](CCC(=O)O)C(=O)N[C@H](CN[C@@H](Cc1ccccc1)C(=O)N[C@@H](CCCNC(=N)N)C(=O)N[C@H](C(=O)O)C(C)C)Cc1ccccc1 [Compound 5, KPLEFΨFRV] | 3.7 ± 0.6 | 3.2 ± 0.5 | – |
